The term pIC50 denotes −log10 of the IC50, conventionally taken in molar units.

pIC50: −log10 of the molar value.

This experiment concerns the target T1, P2X7 receptor (Homo sapiens, UniProt Q99572).
T1 construct: stably expressing the full length P2X7 receptor; expressed in transfected cells
T1 sequence (Q99572 1-595): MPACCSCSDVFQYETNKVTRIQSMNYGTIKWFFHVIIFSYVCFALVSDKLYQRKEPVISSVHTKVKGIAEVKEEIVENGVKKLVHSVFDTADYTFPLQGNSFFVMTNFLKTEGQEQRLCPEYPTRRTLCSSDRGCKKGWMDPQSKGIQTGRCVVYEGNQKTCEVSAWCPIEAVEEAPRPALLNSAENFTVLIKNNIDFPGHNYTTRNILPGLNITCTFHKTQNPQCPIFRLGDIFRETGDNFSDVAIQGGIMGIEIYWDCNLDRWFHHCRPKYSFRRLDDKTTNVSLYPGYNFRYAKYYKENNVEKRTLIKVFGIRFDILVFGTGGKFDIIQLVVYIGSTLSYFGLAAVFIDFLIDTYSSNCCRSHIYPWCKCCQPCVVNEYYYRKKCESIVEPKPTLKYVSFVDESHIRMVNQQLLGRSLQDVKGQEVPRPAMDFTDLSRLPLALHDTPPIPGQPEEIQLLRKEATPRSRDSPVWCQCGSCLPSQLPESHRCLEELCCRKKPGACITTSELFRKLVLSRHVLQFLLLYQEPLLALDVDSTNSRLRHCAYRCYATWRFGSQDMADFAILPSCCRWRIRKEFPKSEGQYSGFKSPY
Kind of experiment: Ca++ flux assay (FLIPR) in P2X7-HEK-293 cell line stably expressing the full length P2X7 receptor, Bz-ATP activation. Conditions: P2X7-HEK-293 cells; agonist Bz-ATP; fluorescence as total area over 90 seconds; read-out: P2X7 Ca Flux hu IC50. Type of experiment: cell-based. The procedure, abridged: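 HEK-293 cells stably expressing full-length P2X7 were loaded with Ca++-sensitive dye for 1 h, with compound added during loading. Cells were stimulated with Bz-ATP on FLIPR. Fluorescence was integrated as total area over 90 s, and IC50 was taken as 50% inhibition of the maximal Ca++ response.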
In the case of `Cc1c(-n2ccn3c(S(=O)(=O)Cc4ccccc4-c4ccc(C(F)(F)F)cc4)nnc3c2=O)cccc1C(F)(F)F` [Compound 164, 7-(2-methyl-3-(trifluoromethyl)phenyl)-3-((4′-(trifluoromethyl)biphenyl-2-yl)methylsulfonyl)-[1,2,4]triazolo[4,3-a]pyrazin-8(7H)-one], the pIC50 was 6.20.

Consider `Cc1c(-n2ccn3c(S(C)(=O)=O)nnc3c2=O)cccc1C(F)(F)F` [Compound 165, 7-(2-methyl-3-(trifluoromethyl)phenyl)-3-(methylsulfonyl)-[1,2,4]triazolo[4,3-a]pyrazin-8(7H)-one], for which the pIC50 was 5.25.

On to `Cc1c(Cl)cccc1-n1ccn2c(NCc3ccccc3-c3ccccc3)nnc2c1=O` [Compound 166, 3-(biphenyl-2-ylmethylamino)-7-(3-chloro-2-methylphenyl)-[1,2,4]triazolo[4,3-a]pyrazin-8(7H)-one], for which the pIC50 was 6.23.

With `Cc1c(Cl)cccc1-n1ccn2c(NC(c3ccccc3)c3ccccc3)nnc2c1=O` [Compound 167, 3-(benzhydrylamino)-7-(3-chloro-2-methylphenyl)-[1,2,4]triazolo[4,3-a]pyrazin-8(7H)-one], the pIC50 is 5.98.

Consider `Cc1c(Cl)cccc1-n1ccn2c(NCCc3ccccc3)nnc2c1=O` [Compound 168, 7-(3-chloro-2-methylphenyl)-3-(phenethylamino)-[1,2,4]triazolo[4,3-a]pyrazin-8(7H)-one], for which the negative logarithm of the IC50 (pIC50) was 5.50.

Regarding `Cc1c(Cl)cccc1-n1ccn2c(N(C)Cc3ccccc3)nnc2c1=O` [Compound 169, 3-(benzyl(methyl)amino)-7-(3-chloro-2-methylphenyl)-[1,2,4]triazolo[4,3-a]pyrazin-8(7H)-one], the negative-log IC50 (pIC50) is 5.80.

For the compound `Cc1c(Cl)cccc1-n1ccn2c(N(Cc3ccccc3)Cc3ccccc3)nnc2c1=O` [Compound 170, 7-(3-chloro-2-methylphenyl)-3-(dibenzylamino)-[1,2,4]triazolo[4,3-a]pyrazin-8(7H)-one], the negative-log IC50 (pIC50) is 6.97.

On to `Cc1c(Cl)cccc1-n1ccn2c(N(Cc3ccccc3)CC3CC3)nnc2c1=O` [Compound 171, 3-(benzyl(cyclopropylmethyl)amino)-7-(3-chloro-2-methylphenyl)-[1,2,4]triazolo[4,3 - a]pyrazin-8(7H)-one], for which the pIC50 was 6.64.

The record behind these values is US20130196986A1 (priority 2010, published 2013).
